Tests used:
Type in all cases: in vivo
Setaria viridis = test: Post-emergence herbicidal action, SETVI; set-up: key: % herbicidal action vs untreated; 100 = plants died, 0 = like control; settings: for Herbicidal action against SETVI: comparative experiment
In short: (§1)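 After sowing into sandy loam, plants grew 2 to 3 weeks under greenhouse conditions until one leaf, then got a spray of compound as aqueous suspension or emulsion. Roughly three weeks on, activity was estimated visually against untreated pots.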

Viola tricolor = test: Pre-emergence herbicidal action, VIOTR; set-up: key to Herbicidal action against VIOTR: % activity: 100 = plants have died, 0 = like control plants; settings: for herbicidal activity VIOTR: scored visually after 3 weeks vs untreated controls (100% = plants have died); for Herbicidal action against VIOTR: comparative experiment
In short: (§2)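 Percent damage, assessed visually after 3 weeks and referenced to untreated controls, reflects a pre-emergence treatment. Spray liquid equated to 600 to 800 l/ha with 0.2% wetting agent, applied to the covering soil over seeds in sandy loam.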

Polygonum convolvulus = test: Pre-emergence herbicidal action, POLCO; settings: for herbicidal activity POLCO: scored visually after 3 weeks vs untreated controls (100% = plants have died)
In short: as §2

Matricaria inodora = test: Pre-emergence herbicidal action, MATIN; set-up: key to Herbicidal action against MATIN: % activity: 100 = plants have died, 0 = like control plants; settings: for herbicidal activity MATIN: scored visually after 3 weeks vs untreated controls (100% = plants have died); for Herbicidal action against MATIN: comparative experiment
In short: as §2

Echinochloa crus-galli = test: Post-emergence herbicidal action, ECHCG; set-up: key: % herbicidal action vs untreated; 100 = plants died, 0 = like control; settings: for Herbicidal action against ECHCG: comparative experiment
In short: as §1

Avena fatua = test: Post-emergence herbicidal action, AVEFA; set-up: key: % herbicidal action vs untreated; 100 = plants died, 0 = like control; settings: for Herbicidal action against AVEFA: comparative experiment
In short: as §1

[1] = post-emergence, 20 g of a.i./ha

SMILES	herbicidal action SETVI (Setaria viridis; post-emergence, dosage 80 g/ha) [%]	herbicidal activity VIOTR (Viola tricolor; dosage 320 g/ha) [%]	herbicidal activity POLCO (Polygonum convolvulus; dosage 320 g/ha) [%]	herbicidal activity MATIN (Matricaria inodora; dosage 320 g/ha) [%]	herbicidal action ECHCG (Echinochloa crus-galli; post-emergence, dosage 80 g/ha) [%]	herbicidal action AVEFA (Avena fatua; post-emergence, dosage 80 g/ha) [%]	herbicidal action SETVI (Setaria viridis; Dosage 80 g/ha)	herbicidal action ECHCG (Echinochloa crus-galli; Dosage 80 g/ha)	herbicidal action AVEFA (Avena fatua; Dosage 80 g/ha)	further results
CC[S+]([O-])Cc1c(C(F)(F)F)ccc(C(=O)Nc2nnnn2C)c1Cl (racemic) [Example 1-300]	90	100	100	100	100	100	–	–	–	–
Cn1nnnc1NC(=O)c1ccc(C(F)(F)F)c(C[S+]([O-])C2CC2)c1Cl (racemic) [Example 1-303]	100	100	100	100	100	100	–	–	–	–
COCC[S+]([O-])Cc1c(C(F)(F)F)ccc(C(=O)Nc2nnnn2C)c1Cl (racemic) [Example 1-306]	–	100	80	100	–	–	90	90	80	–
Cn1nnnc1NC(=O)c1ccc(C(F)(F)F)c(C[S+]([O-])CC(F)(F)F)c1Cl (racemic) [Example 1-312]	100	100	90	100	100	90	–	–	–	–
Cn1nnnc1NC(=O)c1ccc(I)c(C[S+](C)[O-])c1Cl (racemic) [Example 1-363]	100	100	90	100	100	100	–	–	–	Herbicidal action against MATIN (Matricaria inodora; 20 g of a.i./ha): 90
CC[S+]([O-])Cc1c(C(F)(F)F)ccc(C(=O)Nc2nnnn2C)c1Br (racemic) [Example 1-384]	90	100	90	100	100	100	–	–	–	Herbicidal action against SETVI (Setaria viridis; [1]): 90; Herbicidal action against VIOTR (Viola tricolor; 80 g of a.i./ha): 100; Herbicidal action against ECHCG (Echinochloa crus-galli; [1]): 90
CSCc1c(C(F)(F)F)ccc(C(=O)Nc2nnnn2C)c1C [Example 1-83]	100	100	100	100	90	90	–	–	–	–
CSc1c(C(=O)Nc2nnnn2C)ccc(C(F)(F)F)c1C[S+](C)[O-] (stereo not shown) [Example 1-162]	100	100	100	100	100	100	–	–	–	Herbicidal action against POLCO (Polygonum convolvulus; comparative experiment, 20 g of a.i./ha): 80
CCSCc1c(C(F)(F)F)ccc(C(=O)Nc2nnnn2C)c1SCC [Example 1-182]	–	100	100	100	–	–	90	90	80	Herbicidal action against SETVI (Setaria viridis; post-emergence, 5 g of a.i./ha): 70; Herbicidal action against VIOTR (Viola tricolor; 20 g of a.i./ha): 80; Herbicidal action against MATIN (Matricaria inodora; 20 g of a.i./ha): 80; Herbicidal action against ECHCG (Echinochloa crus-galli; post-emergence, 5 g of a.i./ha): 80
CCSCc1c(C(F)(F)F)ccc(C(=O)Nc2nnnn2C)c1Cl [Example 1-299]	90	100	90	100	90	90	–	–	–	Herbicidal action against MATIN (Matricaria inodora; 20 g of a.i./ha): 90; Herbicidal action against AVEFA (Avena fatua; post-emergence, 5 g of a.i./ha): 80
Cn1nnnc1NC(=O)c1ccc(C(F)(F)F)c(CSC2CC2)c1Cl [Example 1-302]	100	100	100	100	100	100	–	–	–	–
Cn1nnnc1NC(=O)c1ccc(C(F)(F)F)c(CS(=O)(=O)C2CC2)c1Cl [Example 1-304]	90	100	100	100	100	100	–	–	–	–
Cn1nnnc1NC(=O)c1ccc(C(F)(F)F)c(CSCC2CC2)c1Cl [Example 1-314]	100	100	100	100	100	100	–	–	–	–
Cn1nnnc1NC(=O)c1ccc(C(F)(F)F)c(CS(=O)(=O)CC2CC2)c1Cl [Example 1-316]	–	100	100	100	–	–	90	100	100	–
CSCc1c(C(F)F)ccc(C(=O)Nc2nnnn2C)c1Cl [Example 1-320]	–	100	90	100	–	–	100	100	100	Herbicidal action against SETVI (Setaria viridis; post-emergence, 5 g of a.i./ha): 100; Herbicidal action against ECHCG (Echinochloa crus-galli; post-emergence, 5 g of a.i./ha): 100
Cn1nnnc1NC(=O)c1ccc(C(F)F)c(CS(C)(=O)=O)c1Cl [Example 1-322]	100	100	100	100	100	80	–	–	–	–
CCSCc1c(C(F)F)ccc(C(=O)Nc2nnnn2C)c1Cl [Example 1-323]	100	100	100	90	100	100	–	–	–	Herbicidal action against SETVI (Setaria viridis; post-emergence, 5 g of a.i./ha): 100; Herbicidal action against AVEFA (Avena fatua; post-emergence, 5 g of a.i./ha): 70
CCS(=O)(=O)Cc1c(C(F)F)ccc(C(=O)Nc2nnnn2C)c1Cl [Example 1-325]	–	100	100	100	–	–	100	100	90	–
CCSCc1c(C(F)(F)F)ccc(C(=O)Nc2nnnn2C)c1Br [Example 1-383]	90	100	100	100	90	90	–	–	–	Herbicidal action against SETVI (Setaria viridis; [1]): 90; Herbicidal action against VIOTR (Viola tricolor; 80 g of a.i./ha): 100; Herbicidal action against AVEFA (Avena fatua; [1]): 90
CCS(=O)(=O)Cc1c(C(F)(F)F)ccc(C(=O)Nc2nnnn2C)c1Br [Example 1-385]	100	100	90	100	90	100	–	–	–	Herbicidal action against SETVI (Setaria viridis; [1]): 90; Herbicidal action against MATIN (Matricaria inodora; 80 g of a.i./ha): 100; Herbicidal action against ECHCG (Echinochloa crus-galli; [1]): 90; Herbicidal action against AVEFA (Avena fatua; [1]): 80
Cn1nnnc1NC(=O)c1ccc(C(F)(F)F)c(CS(C)(=O)=O)c1C(F)(F)C(F)(F)F [Example 1-552]	–	100	90	100	–	–	80	90	90	–
CCSCc1c(C(F)(F)F)ccc(C(=O)Nc2nnnn2CC)c1C [Example 2-86]	90	–	–	–	90	100	–	–	–	herbicidal action VIOTR (Viola tricolor; dosage 320 g/ha): 100%; herbicidal action POLCO (Polygonum convolvulus; dosage 320 g/ha): 80%; herbicidal action MATIN (Matricaria inodora; dosage 320 g/ha): 100%
CCn1nnnc1NC(=O)c1ccc(C(F)(F)F)c(C[S+](C)[O-])c1SC (stereo not shown) [Example 2-162]	–	100	100	100	–	–	90	90	100	–
CCn1nnnc1NC(=O)c1ccc(C(F)(F)F)c(CSC)c1Cl [Example 2-296]	90	100	100	100	90	100	–	–	–	–
CCn1nnnc1NC(=O)c1ccc(C(F)(F)F)c(C[S+](C)[O-])c1Cl (stereo not shown) [Example 2-297]	100	100	80	100	100	100	–	–	–	–
CCn1nnnc1NC(=O)c1ccc(C(F)(F)F)c(CS(C)(=O)=O)c1Cl [Example 2-298]	–	100	90	100	–	–	90	90	100	–

Source: US12492173B2, “Herbicidal substituted N-tetrazolyl aryl carboxamides” (Bayer Aktiengesellschaft, priority 2019, dated 2025)
